In the supplement of paper PMC8671470:

What was measured:
Conditions in all cases: 72 h
BV-173 [1] = system: BV-173
Outline: (§1)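 Seeded in RPMI 1640 at densities within the linear growth range, fifteen myeloid leukaemia cell lines were dispensed into 384-well plates with acoustically pre-printed compounds spanning five tenfold doses from 1 to 10,000 nM, in duplicate. The plates were kept for 72 h at 37 °C in 5% CO2 before luminescent ATP viability was measured and normalised to vehicle and to a positive control at 10 µM. Curves were fitted with a four-parameter log-logistic model. The IC50 was taken from those curves.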

HEL [2] = system: HEL
Outline: as §1

HL-60 [3] = system: HL-60
Outline: as §1

K-562 [4] = system: K-562
Outline: as §1

KCL-22 [5] = system: KCL-22
Outline: as §1

KG-1 = system: KG-1
Outline: as §1

KU-812 [6] = system: KU-812
Outline: as §1

LAMA-84 [7] = system: LAMA-84
Outline: as §1

ML-2 [8] = system: ML-2
Outline: as §1

MOLM-13 = system: MOLM-13
Outline: as §1

MV4-11 = system: MV4-11
Outline: as §1

Mono-Mac-6 [9] = system: Mono-Mac-6
Outline: as §1

NOMO-1 [10] = system: NOMO-1
Outline: as §1

SHI-1 [11] = system: SHI-1
Outline: as §1

THP-1 = system: THP-1
Outline: as §1

HL-60 [12] = test: cell viability (% survival relative to DMSO control); higher = less cytotoxic
Outline: (§2)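 HL-60 cells grown in RPMI 1640 with 10% FBS were rescreened against the full library in 384-well plates, in duplicate, at five tenfold concentrations from 1 to 10,000 nM, alongside DMSO or 100 nM of one of three metabolic inhibitors for 72 h at 37 °C, 5% CO2. Reference wells contained DMSO or 10 μM proteasome inhibitor. Viability was read with CellTiter-Glo and normalised to these reference wells, and where reported, area under the curve was taken from four-parameter log-logistic fits in drc and PharmacoGx.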

BV-173 [13] = test: cell viability (% survival relative to DMSO control, bortezomib = 0%); higher = less cytotoxic
Outline: (§3)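 Fifteen myeloid leukaemia cell lines were exposed to compounds at 1, 10, 100, 1000 or 10000 nM in 384-well plates for 72 h at 37 °C and 5% CO2. Viability was read by CellTiter-Glo luminescence and normalised, with vehicle as 100% and a 10 µM positive control as 0%. Values are percent survival averaged over duplicates.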

HEL [14] = test: as above
Outline: as §3

HL-60 [15] = test: as above
Outline: as §3

K-562 [16] = test: as above
Outline: as §3

KCL-22 [17] = test: as above
Outline: as §3

KU-812 [18] = test: as above
Outline: as §3

LAMA-84 [19] = test: as above
Outline: as §3

ML-2 [20] = test: as above
Outline: as §3

Mono-Mac-6 [21] = test: as above
Outline: as §3

NOMO-1 [22] = test: as above
Outline: as §3

SHI-1 [23] = test: as above
Outline: as §3

HL-60 [24] = test: area under dose-response curve (viability, 1 nM-10 uM) (fraction (0-1)); higher = more sensitive
Outline: as §2

CC[C@@]1(O)C(=O)OCc2c1cc1n(c2=O)Cc2cc3c(CN(C)C)c(O)ccc3nc2-1 [Topotecan]
Conditions	IC50 (cell viability) [nM]
BV-173 [1]	11.4
HEL [2]	33.3
HL-60 [3]	22.5
K-562 [4]	97
KCL-22 [5]	59.4
KG-1	42.7
KU-812 [6]	40.7
LAMA-84 [7]	65.4
ML-2 [8]	24.5
MOLM-13	18
MV4-11	11.9
Mono-Mac-6 [9]	34.4
NOMO-1 [10]	40.5
SHI-1 [11]	24
THP-1	289

cell viability [%], HL-60 [12]
Conditions	0.001 µM	0.01 µM	0.1 µM	1 µM	10 µM
co-treatment: AZD3965 100 nM	99.6	98.4	7.08	3.55	2.51
co-treatment: DMSO vehicle	101	103	11.5	5.98	2.79
co-treatment: GSK2194069 100 nM	91.07	111	10.4	6.25	3.68
co-treatment: pictilisib 100 nM	102	98	9.22	5.76	3.31

Conditions	area under dose-response curve, co-treatment: AZD3965 100 nM	area under dose-response curve, co-treatment: DMSO vehicle	area under dose-response curve, co-treatment: GSK2194069 100 nM	area under dose-response curve, co-treatment: pictilisib 100 nM	cell viability, 1 nM [%]	cell viability, 10 nM [%]	cell viability, 100 nM [%]	cell viability, 1000 nM [%]	cell viability, 10000 nM [%]
BV-173 [13]	–	–	–	–	100	56.7	-0.0236	0.0225	0.196
HEL [14]	–	–	–	–	94.8	103	0.201	0.373	0.268
HL-60 [15]	–	–	–	–	94.9	81.7	0.181	0.081	1.02
HL-60 [24]	0.608	0.585	0.58	0.597	–	–	–	–	–
K-562 [16]	–	–	–	–	90.8	92.7	48.3	13.2	4.27
KCL-22 [17]	–	–	–	–	97.2	97.8	27.9	5.33	1.56
KU-812 [18]	–	–	–	–	95.5	99.6	13.1	3.16	1.45
LAMA-84 [19]	–	–	–	–	93.6	97.4	29.2	1.78	0.506
ML-2 [20]	–	–	–	–	94.6	84.8	0.565	0.238	3.1
Mono-Mac-6 [21]	–	–	–	–	87.3	98	2.7	0.495	0.236
NOMO-1 [22]	–	–	–	–	98.7	98.9	12.6	2.17	0.853
SHI-1 [23]	–	–	–	–	97.1	85.8	0.99	-0.151	0.783

CCC(=O)N1CCN(c2ccc(-n3c(=O)ccc4cnc5ccc(-c6cnc7ccccc7c6)cc5c43)cc2C(F)(F)F)CC1 [Torin1]
Conditions	IC50 (cell viability) [nM]
BV-173 [1]	377
HEL [2]	594
HL-60 [3]	1750
K-562 [4]	327
KCL-22 [5]	251
KG-1	295
KU-812 [6]	191
LAMA-84 [7]	222
ML-2 [8]	616
MOLM-13	208
MV4-11	486
Mono-Mac-6 [9]	333
NOMO-1 [10]	672
SHI-1 [11]	> 10000
THP-1	1110

cell viability [%], HL-60 [12]
Conditions	0.001 µM	0.01 µM	0.1 µM	1 µM	10 µM
co-treatment: AZD3965 100 nM	105	100	91.3	99	51.4
co-treatment: DMSO vehicle	97.9	102.1	93.4	101	65.4
co-treatment: GSK2194069 100 nM	106	106	92.1	104.4	72.7
co-treatment: pictilisib 100 nM	100	104	80	85.8	65.5

Conditions	area under dose-response curve, co-treatment: AZD3965 100 nM	area under dose-response curve, co-treatment: DMSO vehicle	area under dose-response curve, co-treatment: GSK2194069 100 nM	cell viability, 1 nM [%]	cell viability, 10 nM [%]	cell viability, 100 nM [%]	cell viability, 1000 nM [%]	cell viability, 10000 nM [%]
BV-173 [13]	–	–	–	111	80.7	89.1	20.9	8.44
HEL [14]	–	–	–	109	105	99.3	36.4	14.7
HL-60 [15]	–	–	–	73.2	95.1	85.7	65.3	24.6
HL-60 [24]	0.0362	< 0.0301	< 0.0301	–	–	–	–	–
K-562 [16]	–	–	–	108	87	85.9	24.7	11.7
KCL-22 [17]	–	–	–	102	110	87.8	10.9	8.17
KU-812 [18]	–	–	–	97.7	87.1	73.1	24.4	20.1
LAMA-84 [19]	–	–	–	105	93.1	80.2	28.8	21.8
ML-2 [20]	–	–	–	96.1	99.7	91.5	46.5	33.5
Mono-Mac-6 [21]	–	–	–	92.2	85.5	75.8	35.7	21.7
NOMO-1 [22]	–	–	–	109	96.2	93.4	47.5	37.1
SHI-1 [23]	–	–	–	89.8	92	80.2	48.9	69.4
